Source: US9174940B2, “TSH receptor antagonizing tetrahydroquinoline compounds” (Merck Sharp & Dohme B.V., priority 2007, dated 2015)

Tests used:
human TSH receptor [1] = molecular target: T1, human TSH receptor (Homo sapiens (Human), UniProt P16473); experiment: Antagonist activity against human TSI at the human TSH receptor expressed in CHO cells (CRE-luciferase reporter, rolipram); assay type: cell-based; details: stimulated with 3.16 mg/ml human TSI; 10 μM rolipram; CHO cells cultured 16 h without serum
human TSH receptor [2] = molecular target: T1, human TSH receptor; experiment: Antagonist activity against bovine TSH at the human TSH receptor in CHO cells under the TSI assay conditions (CRE-luciferase reporter, rolipram); assay type: cell-based; details: stimulated with 18 nM bovine TSH; 10 μM rolipram; CHO cells cultured 16 h without serum
[3] = system: constitutively active human TSHR mutants (Thr632Ile, Ala623Val, Ile568Thr, Asp619Gly and Asp633Glu); experiment: Antagonist activity at constitutively active human TSH receptors expressed in CHO cells (cAMP Alphascreen); assay type: cell-based; details: 10^−6M compound, 10 μM rolipram, transiently transfected CHO cells
Method: Antagonist activity of two compounds was tested in Chinese Hamster Ovary (CHO) cells transiently transfected with a plasmid encoding one of the 5 most prevalent, constitutively active human TSHR mutants (Thr632Ile, Ala623Val, Ile568Thr, Asp619Gly and Asp633Glu) (van Sande et al. (1995) J. Clin. Endocrinol. Metabol. 80, 2577-2585), which have been identified in autonomously functioning thyroid nodules causing hyperthyroidism. The cells were incubated with 10^−6M of either the compound of example 35 or example 1 in the presence of 10 μM rolipram. Activity of the TSH receptor mutants was quantified using a Packard cAMP Alphascreen assay.

human TSH receptor [4] = molecular target: T1, human TSH receptor; experiment: Antagonist activity against TSH at the human TSH receptor expressed in CHO cells (CRE-luciferase reporter); details: together with 18 nM bovine TSH
Method: Antagonist activity of the compounds against TSH at the human TSH receptor was tested in Chinese Hamster Ovary (CHO) cells stably transfected with a plasmid encoding the human TSH receptor and a second plasmid with a cAMP responsive element (CRE)/promotor directing the expression of a firefly luciferase reporter gene. Binding of bovine TSH to the Gs-coupled TSH receptor will result in an increase of cAMP, which in turn will induce an increased transactivation of the luciferase reporter. Luciferase activity was quantified using a luminescence counter.

T1 sequence (P16473 21-764): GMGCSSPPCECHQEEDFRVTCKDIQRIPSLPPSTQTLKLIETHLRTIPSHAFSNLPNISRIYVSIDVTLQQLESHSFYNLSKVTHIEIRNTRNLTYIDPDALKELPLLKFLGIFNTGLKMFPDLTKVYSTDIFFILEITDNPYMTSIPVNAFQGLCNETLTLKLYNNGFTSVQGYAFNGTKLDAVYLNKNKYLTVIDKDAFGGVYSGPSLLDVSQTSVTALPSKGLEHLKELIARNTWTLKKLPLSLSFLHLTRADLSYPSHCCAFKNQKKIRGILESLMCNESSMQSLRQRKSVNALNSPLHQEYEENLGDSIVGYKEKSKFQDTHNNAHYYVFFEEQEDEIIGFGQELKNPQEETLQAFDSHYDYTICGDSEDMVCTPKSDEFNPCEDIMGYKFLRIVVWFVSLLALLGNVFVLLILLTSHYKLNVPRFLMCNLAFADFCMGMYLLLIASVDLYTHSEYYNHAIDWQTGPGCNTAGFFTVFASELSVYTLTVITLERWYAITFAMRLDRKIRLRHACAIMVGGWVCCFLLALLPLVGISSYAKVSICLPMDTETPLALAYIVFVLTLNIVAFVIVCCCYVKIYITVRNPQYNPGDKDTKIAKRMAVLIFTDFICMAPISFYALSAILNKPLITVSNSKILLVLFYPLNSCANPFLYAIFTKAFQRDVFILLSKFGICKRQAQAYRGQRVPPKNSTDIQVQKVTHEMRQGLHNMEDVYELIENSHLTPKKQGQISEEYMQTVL

Row | Compound | IC50 (human TSH receptor [4]) [nM] | further results
1 | CC(=O)N1CCC(C)(c2ccccc2)c2cc(NC(=O)OC3CCCC3)ccc21 (single isomer, unassigned; (+)) [Example 39] |  | IC50 (human TSH receptor [1]): 12 nM; IC50 (human TSH receptor [2]): 48 nM
2 | CC(=O)N1CCC(C)(c2ccccc2)c2cc(NC(=O)OCc3ccc(F)c(Cl)c3)ccc21 (single isomer, unassigned; (+)) [Example 40, (+)-(1-Acetyl-4-methyl-4-phenyl-1,2,3,4-tetrahydro-quinolin-6-yl)-carbamic acid 3-chloro-4-fluoro-benzyl ester] |  | IC50 (human TSH receptor [1]): 47 nM; IC50 (human TSH receptor [2]): 192 nM
3 | CCCCCC(=O)Nc1ccc2c(c1)C(C)(c1ccccc1)CC(C)(C)N2C(C)=O (stereo not drawn) [Example 1, Hexanoic acid (1-acetyl-2,2,4-trimethyl-4-phenyl-1,2,3,4-tetrahydro-quinolin-6-yl)-amide] | < 100 | inhibition of constitutive activity of all 5 receptor mutants [3]: > 80%; IC50 (human TSH receptor [1]): 88 nM; IC50 (human TSH receptor [2]): 368 nM
4 | CC(=O)N1c2ccc(NC(=O)c3ccccn3)cc2C(C)(c2ccccc2)CC1(C)C (stereo not drawn) [Example 4, Pyridine-2-carboxylic acid (1-acetyl-2,2,4-trimethyl-4-phenyl-1,2,3,4-tetrahydro-quinolin-6-yl)-amide] | < 100 | 
5 | CC(=O)N1CCC(C)(c2ccccc2)c2cc(NC(=O)OCCC(C)C)ccc21 (stereo not drawn) [Example 27, (1-Acetyl-4-methyl-4-phenyl-1,2,3,4-tetrahydro-quinolin-6-yl)-carbamic acid 3-methyl-butyl ester] | < 100 | 
6 | CC(=O)N1CCC(C)(c2ccccc2)c2cc(NC(=O)OCC3(C)CC3)ccc21 (stereo not drawn) [Example 28, (1-Acetyl-4-methyl-4-phenyl-1,2,3,4-tetrahydro-quinolin-6-yl)-carbamic acid 1-methyl-cyclopropylmethyl ester] | < 100 | 
7 | CC(=O)N1CCC(C)(c2ccccc2)c2cc(NC(=O)OCC3CCC3)ccc21 (stereo not drawn) [Example 29, (1-Acetyl-4-methyl-4-phenyl-1,2,3,4-tetrahydro-quinolin-6-yl)-carbamic acid cyclobutylmethyl ester] | < 100 | 
8 | CC(=O)N1CCC(C)(c2ccccc2)c2cc(NC(=O)OCc3ccc(F)c(Cl)c3)ccc21 (stereo not drawn) [Example 34, (1-Acetyl-4-methyl-4-phenyl-1,2,3,4-tetrahydro-quinolin-6-yl)-carbamic acid 3-chloro-4-fluoro-benzyl ester] | < 100 | 
9 | CC(=O)N1CCC(C)(c2ccccc2)c2cc(NC(=O)c3ccc(Br)s3)ccc21 (stereo not drawn) [Example 35, 5-Bromo-thiophene-2-carboxylic acid (1-acetyl-4-methyl-4-phenyl-1,2,3,4-tetrahydro-quinolin-6-yl)-amide] |  | inhibition of constitutive activity of all 5 receptor mutants [3]: > 80%

The next lines start with results.

Row | IC50 (human TSH receptor [4]) [nM] | Compound | further results
10 | < 100 | CC(=O)N1c2ccc(NC(=O)OCCOc3ccccc3)cc2C(C)(c2ccccc2)CC1(C)C (stereo not drawn) [Example 6, (1-Acetyl-2,2,4-trimethyl-4-phenyl-1,2,3,4-tetrahydro-quinolin-6-yl)-carbamic acid 2-phenoxy-ethyl ester] | 
11 | < 100 | CCCCOC(=O)Nc1ccc2c(c1)C(C)(c1ccccc1)CC(C)(C)N2C(C)=O (stereo not drawn) [Example 7, (1-Acetyl-2,2,4-trimethyl-4-phenyl-1,2,3,4-tetrahydro-quinolin-6-yl)-carbamic acid butyl ester] | 
12 | < 100 | CC(=O)N1c2ccc(NC(=O)CCc3cccc(Cl)c3)cc2C(C)(c2ccccc2)CC1(C)C (stereo not drawn) [Example 26, N-(1-Acetyl-2,2,4-trimethyl-4-phenyl-1,2,3,4-tetrahydro-quinolin-6-yl)-3-(3-chloro-phenyl)-propionamide] | 
13 | < 100 | (1-Acetyl-4-methyl-4-phenyl-1,2,3,4,4a,8a-hexahydro-quinolin-6-yl)-carbamic acid cyclopentyl ester [Example 32] | 
